Measured values reported in ChEMBL document CHEMBL4483862, “Open-source discovery of chemical leads for next-generation chemoprotective antimalarials” (2018).

Tested on: Plasmodium berghei
Assay: Luciferase/luciferin-expressing antifolate-resistant parasites were used to infect a culture of HepG2 cells that were pre-incubated with compounds. Infected hepatocytes emit light due to the luciferase reaction. Assay results are presented as the percent inhibition of light emission compared to control. […]
Format: functional
Settings: sporozoite; for IC50: read-out: LUCIFERASE INFECTION ASSAY - IC50; for IC90: read-out: LUCIFERASE INFECTION ASSAY - IC90

Row | SMILES | IC50 [µM] | IC90 [µM]
1 | COc1ccccc1-n1nnnc1SC(C)C(=O)Nc1ccc2[nH]c(=O)[nH]c2c1 (stereo not given) | > 10 | > 10
2 | COc1cc(OC)c(C(=O)/C=C/c2cccnc2)cc1Cl | 3.3 | 3.76
3 | COC(=O)c1cccnc1Nc1ccc(NS(=O)(=O)c2ccc(F)c(F)c2)cc1 | > 10 | > 10
4 | COc1cc(NC(=O)COc2ccc3[nH]c4ccccc4c(=O)c3c2)c(OC)cc1Cl | 0.246 | 2.11
5 | Cc1cc(N2CCN(C)CC2)ccc1NC(=O)c1cnc2c(c1)c(=O)n(C)c(=O)n2C | > 10 | > 10
6 | CCC1c2ccsc2CCN1C(=O)C1CCN(S(=O)(=O)c2ccc(Cl)c([N+](=O)[O-])c2)CC1 (stereo not given) | > 10 | > 10
7 | Cc1ccc(-n2c(=O)c3ccccc3n3c(SCc4nnnn4C4CC4)nnc23)c(C)c1 | > 10 | > 10
8 | CN(C)S(=O)(=O)c1ccc2nnn(OCCCOc3ccc(C(C)(C)C)cc3)c2c1 | > 10 | > 10
9 | C=CCNc1nnc(SCC(=O)Nc2c(Cl)cc(Cl)cc2C(=O)O)s1 | > 10 | > 10
10 | CC(C)(Oc1ccc(Cl)cc1)C(=O)Nc1ccc(F)c(S(=O)(=O)N2CCOCC2)c1 | > 10 | > 10
11 | CCOC(=O)/C(=C\c1cccc(Br)c1)C1=Nn2c(nnc2-c2ccc(OC)cc2)SC1 | > 10 | > 10
12 | Cc1nc(=O)c(CCC(=O)Nc2ncc(Cc3cccc(C)c3Cl)s2)c(C)[nH]1 | 8.8 | > 10
13 | CCCN(Cc1nc(-c2ccccc2)c2ccccc2n1)Cc1nc2ccsc2c(=O)[nH]1 | > 10 | > 10
14 | CC(C)CCn1c(SCC(=O)N2CCc3ccccc3C2)nc2ccccc2c1=O | > 10 | > 10
15 | Cc1nn(Cc2ccc(F)cc2)c2sc(C(=O)NCc3nnc4ccc(C(F)(F)F)cn34)cc12 | > 10 | > 10
16 | C=CCn1c(-c2ccoc2C)nn(CN(C)Cc2nc3ccccc3s2)c1=S | > 10 | > 10
17 | Cc1nn(-c2ccccc2)nc1C(=O)NCc1ccccc1-c1ccc(CN(C)C)cc1 | 3.7 | 5.83
18 | CN(C1CCCCCC1)S(=O)(=O)c1ccc(-n2ncc(Cl)c(Cl)c2=O)cc1 | 3.55 | 5.25
19 | COc1ccc(S(=O)(=O)N2CCc3ccccc32)cc1C(=O)NOCc1ccccc1 | > 10 | > 10
20 | CCCCn1c(N)c(N(CC(C)C)C(=O)CCc2ncc(-c3ccc(C)cc3)o2)c(=O)[nH]c1=O | > 10 | > 10

Row | SMILES | IC50 [µM] | IC90 [µM]
21 | CCc1ccc(CNCc2ccc3c(c2)OCO3)cc1 | > 12.3 | > 12.3
22 | O=C(NNC1c2ccccc2-c2ccccc21)c1ccccc1 | 8.58 | > 10
23 | Cc1ccc(C(C)C)cc1OS(=O)(=O)c1ccc(S(=O)(=O)N(C)C)cc1[N+](=O)[O-] | > 10 | > 10
24 | Cc1cc(C)c(S(=O)(=O)N2CCN(C(=O)/C(=C/c3cccc(F)c3)n3nnnc3C)CC2)c(C)c1 | 1.61 | 3.73
25 | CCC(C)c1ccccc1OS(=O)(=O)c1ccc2c(c1)NC(=O)CO2 (stereo not given) | > 10 | > 10
26 | Cc1ccc(-n2nc(C)c(/C=C3\SC(=S)N(c4ccc(C(=O)O)cc4)C3=O)c2Cl)c(C)c1 | 9.42 | > 10
27 | CCn1c(SCCC(=O)Nc2cc(C)on2)nnc1-c1ccc(C(C)(C)C)cc1 | > 10 | > 10
28 | CC(C)C(NC(=O)c1ccc(C(C)(C)C)cc1)C(=O)Nc1ncc(Cc2ccc(Cl)cc2)s1 (stereo not given) | > 10 | > 10
29 | CC(c1nc(N)nc(N(C)C)n1)N(C)Cc1ccc(-c2ccc(Br)cc2)o1 (stereo not given) | > 10 | > 10
30 | CCN(CC)S(=O)(=O)c1ccc(/C=C/C(=O)N2CC=C(c3ccccc3)CC2)cc1 | > 10 | > 10
31 | O=C(CSc1nc2ccccc2c(=O)n1-c1ccccc1F)N1CCSC1c1ccccc1F (stereo not given) | > 10 | > 10
32 | O=C(NC1CC1)c1ccc(CN(C2CC2)S(=O)(=O)c2ccccc2[N+](=O)[O-])cc1 | 3.41 | 3.74
33 | c1ccc(-c2cn3nc(NCc4ccccc4CN4CCOCC4)sc3n2)cc1 | 1.28 | > 10
34 | CC1Cc2cc(C3=NNC(=Nc4ccccc4[N+](=O)[O-])SC3)ccc2N1S(C)(=O)=O (stereo not given) | 5.32 | > 10
35 | N#CCCN(Cc1ccco1)C(=O)CSc1nc2ccccc2c(=O)n1-c1cccc(Cl)c1 | 7.35 | > 10
36 | CCCCCCc1ccc(-c2csc(NC(=O)CSc3nnc(C(F)(F)F)n3C)n2)cc1 | > 10 | > 10
37 | CC(C)(C)c1ccc(NC(=O)Cc2csc(NC(=O)C3CC3)n2)cc1 | > 10 | > 10
38 | Cc1ccc(OCc2nc(C(=O)Nc3cccc(S(=O)(=O)NC(C)(C)C)c3)cs2)cc1 | > 10 | > 10
39 | CCOc1cc2c(cc1NC(=O)CCCCCn1c(=S)[nH]c3ccccc3c1=O)OC(C)C2 (stereo not given) | > 10 | > 10
40 | COc1cccc2cc(C(=O)/C=C/c3c(C)nc4sc(C)cn34)oc12 | > 10 | > 10
